Test results reported in the NIST ThermoML archive (doi:10.1021/acs.jced.7b00106).
± gives the expanded uncertainty stated by the source.

Conditions: Hot wire method

FC(F)(F)/C=C/Cl [(E)-1-chloro-3,3,3-trifluoroprop-1-ene]
Conditions | thermal conductivity [W/m/K]
302.53 K, 136 kPa, Gas | 0.01102 ± 0.0004
302.53 K, 16444 kPa, Liquid | 0.0897 ± 0.0032
302.53 K, 47194 kPa, Liquid | 0.1006 ± 0.0037
302.55 K, 122 kPa, Gas | 0.01105 ± 0.0004
302.55 K, 36223 kPa, Liquid | 0.09702 ± 0.003
302.57 K, 8074 kPa, Liquid | 0.08557 ± 0.0027
302.59 K, 25791 kPa, Liquid | 0.09335 ± 0.0031
302.6 K, 16014 kPa, Liquid | 0.08919 ± 0.0034
302.61 K, 11882 kPa, Liquid | 0.08715 ± 0.0038
302.61 K, 30546 kPa, Liquid | 0.0947 ± 0.0034
302.62 K, 142 kPa, Gas | 0.01123 ± 0.0004
302.62 K, 7818 kPa, Liquid | 0.08552 ± 0.003
302.64 K, 122 kPa, Gas | 0.01131 ± 0.00041
302.64 K, 131 kPa, Gas | 0.01128 ± 0.0004
302.64 K, 139 kPa, Gas | 0.01119 ± 0.0004
302.65 K, 7853 kPa, Liquid | 0.08571 ± 0.0028
302.65 K, 25491 kPa, Liquid | 0.09284 ± 0.0049
302.66 K, 20510 kPa, Liquid | 0.09077 ± 0.0033
302.68 K, 16449 kPa, Liquid | 0.08922 ± 0.0034
302.7 K, 373 kPa, Liquid | 0.08122 ± 0.0026
302.72 K, 4080 kPa, Liquid | 0.08356 ± 0.0026
302.72 K, 8075 kPa, Liquid | 0.08531 ± 0.0027
302.75 K, 11886 kPa, Liquid | 0.08659 ± 0.0037
302.75 K, 16005 kPa, Liquid | 0.08846 ± 0.0036
302.75 K, 62930 kPa, Liquid | 0.106 ± 0.0039
302.76 K, 303 kPa, Liquid | 0.08187 ± 0.0026
302.76 K, 65463 kPa, Liquid | 0.1068 ± 0.0034
302.78 K, 7822 kPa, Liquid | 0.08491 ± 0.0029
302.79 K, 56432 kPa, Liquid | 0.1045 ± 0.0034
302.81 K, 7852 kPa, Liquid | 0.08507 ± 0.0027
302.82 K, 48051 kPa, Liquid | 0.1011 ± 0.0031
302.83 K, 48410 kPa, Liquid | 0.1013 ± 0.0032
302.85 K, 131 kPa, Gas | 0.0108 ± 0.00039
302.85 K, 136 kPa, Gas | 0.01096 ± 0.0004
302.86 K, 122 kPa, Gas | 0.011 ± 0.0004
302.87 K, 381 kPa, Liquid | 0.08077 ± 0.0027
302.88 K, 4074 kPa, Liquid | 0.08317 ± 0.0028
302.91 K, 62949 kPa, Liquid | 0.1057 ± 0.0033
302.92 K, 299 kPa, Liquid | 0.08155 ± 0.0026
302.92 K, 36387 kPa, Liquid | 0.09706 ± 0.0051
302.92 K, 65445 kPa, Liquid | 0.1067 ± 0.0034
302.93 K, 41986 kPa, Liquid | 0.09906 ± 0.0031
302.93 K, 47187 kPa, Liquid | 0.1008 ± 0.0031
302.95 K, 36224 kPa, Liquid | 0.09698 ± 0.0035
302.95 K, 56429 kPa, Liquid | 0.1038 ± 0.0035
302.98 K, 48055 kPa, Liquid | 0.1009 ± 0.0031
303 K, 48417 kPa, Liquid | 0.101 ± 0.0033
303.02 K, 25798 kPa, Liquid | 0.09309 ± 0.0059
303.03 K, 30542 kPa, Liquid | 0.09496 ± 0.0029
303.04 K, 142 kPa, Gas | 0.01123 ± 0.0004
303.06 K, 137 kPa, Gas | 0.01133 ± 0.00041
303.07 K, 121 kPa, Gas | 0.01128 ± 0.0004
303.07 K, 131 kPa, Gas | 0.01133 ± 0.00041
303.08 K, 25486 kPa, Liquid | 0.09308 ± 0.0028
303.09 K, 20509 kPa, Liquid | 0.09124 ± 0.0038
303.09 K, 41994 kPa, Liquid | 0.09863 ± 0.0031
303.09 K, 47182 kPa, Liquid | 0.1005 ± 0.0032
303.12 K, 16450 kPa, Liquid | 0.08937 ± 0.0027
303.12 K, 36213 kPa, Liquid | 0.09661 ± 0.0035
303.17 K, 135 kPa, Gas | 0.01096 ± 0.0004
303.18 K, 122 kPa, Gas | 0.01101 ± 0.0004
303.18 K, 132 kPa, Gas | 0.0107 ± 0.00039
303.18 K, 8071 kPa, Liquid | 0.0855 ± 0.004
303.2 K, 16008 kPa, Liquid | 0.08894 ± 0.0034
303.2 K, 25794 kPa, Liquid | 0.0928 ± 0.0062
303.21 K, 11886 kPa, Liquid | 0.08665 ± 0.0036
303.21 K, 30558 kPa, Liquid | 0.09462 ± 0.0032
303.24 K, 7824 kPa, Liquid | 0.08506 ± 0.0028
303.25 K, 25489 kPa, Liquid | 0.09272 ± 0.0031
303.27 K, 20510 kPa, Liquid | 0.09093 ± 0.0028
303.28 K, 7854 kPa, Liquid | 0.08529 ± 0.0029
303.31 K, 16446 kPa, Liquid | 0.08918 ± 0.0027
303.31 K, 62940 kPa, Liquid | 0.1059 ± 0.0034
303.32 K, 65424 kPa, Liquid | 0.1066 ± 0.0032
303.34 K, 383 kPa, Liquid | 0.08114 ± 0.0055
303.35 K, 4071 kPa, Liquid | 0.08347 ± 0.0037
303.36 K, 56409 kPa, Liquid | 0.1043 ± 0.0068
303.38 K, 8070 kPa, Liquid | 0.08486 ± 0.0049
303.38 K, 16014 kPa, Liquid | 0.08858 ± 0.0029
303.39 K, 11885 kPa, Liquid | 0.08675 ± 0.0028
303.4 K, 295 kPa, Liquid | 0.08173 ± 0.0038
303.4 K, 48041 kPa, Liquid | 0.1012 ± 0.0031
303.42 K, 48413 kPa, Liquid | 0.1013 ± 0.0031
303.44 K, 7814 kPa, Liquid | 0.0847 ± 0.0032
303.47 K, 7846 kPa, Liquid | 0.0848 ± 0.0036
303.5 K, 136 kPa, Gas | 0.01133 ± 0.00041
303.5 K, 62957 kPa, Liquid | 0.1058 ± 0.0039
303.5 K, 65425 kPa, Liquid | 0.1067 ± 0.0032
303.51 K, 132 kPa, Gas | 0.01137 ± 0.00041
303.51 K, 41983 kPa, Liquid | 0.09892 ± 0.0043
303.51 K, 47179 kPa, Liquid | 0.1008 ± 0.0031
303.53 K, 122 kPa, Gas | 0.01133 ± 0.00041
303.54 K, 4064 kPa, Liquid | 0.08281 ± 0.0041
303.54 K, 56404 kPa, Liquid | 0.1037 ± 0.0036
303.56 K, 36213 kPa, Liquid | 0.09672 ± 0.0034
303.59 K, 293 kPa, Liquid | 0.08112 ± 0.0046
303.6 K, 48039 kPa, Liquid | 0.101 ± 0.0031
303.61 K, 48415 kPa, Liquid | 0.101 ± 0.0031
303.71 K, 41980 kPa, Liquid | 0.09862 ± 0.003
303.71 K, 47178 kPa, Liquid | 0.1004 ± 0.0032
303.76 K, 36210 kPa, Liquid | 0.09644 ± 0.0033
303.97 K, 136 kPa, Gas | 0.01134 ± 0.00041
304 K, 121 kPa, Gas | 0.01134 ± 0.00041
304.01 K, 131 kPa, Gas | 0.01133 ± 0.00041
304.5 K, 135 kPa, Gas | 0.01137 ± 0.00041
304.51 K, 122 kPa, Gas | 0.01139 ± 0.00041
304.53 K, 130 kPa, Gas | 0.01127 ± 0.0004
305.03 K, 135 kPa, Gas | 0.0114 ± 0.00042
305.05 K, 121 kPa, Gas | 0.0114 ± 0.00041
305.16 K, 131 kPa, Gas | 0.01092 ± 0.00039
305.6 K, 134 kPa, Gas | 0.01142 ± 0.00041
305.62 K, 122 kPa, Gas | 0.01143 ± 0.00041
305.74 K, 132 kPa, Gas | 0.01105 ± 0.0004
311.53 K, 157 kPa, Gas | 0.01177 ± 0.00042
311.84 K, 158 kPa, Gas | 0.01185 ± 0.00042
311.93 K, 134 kPa, Gas | 0.01187 ± 0.00042
312.17 K, 165 kPa, Gas | 0.01181 ± 0.00042
312.19 K, 159 kPa, Gas | 0.01198 ± 0.00043
312.22 K, 98 kPa, Gas | 0.012 ± 0.00043
312.23 K, 134 kPa, Gas | 0.01169 ± 0.00042
312.26 K, 135 kPa, Gas | 0.01202 ± 0.00043
312.37 K, 191 kPa, Gas | 0.012 ± 0.00043
312.46 K, 165 kPa, Gas | 0.01175 ± 0.00042
312.5 K, 133 kPa, Gas | 0.0117 ± 0.00042
312.53 K, 160 kPa, Gas | 0.01191 ± 0.00043
312.56 K, 98 kPa, Gas | 0.01197 ± 0.00043
312.64 K, 135 kPa, Gas | 0.01197 ± 0.00043
312.67 K, 191 kPa, Gas | 0.01194 ± 0.00043
312.76 K, 166 kPa, Gas | 0.01173 ± 0.00042
312.79 K, 131 kPa, Gas | 0.01152 ± 0.00041
312.81 K, 96 kPa, Gas | 0.01168 ± 0.00042
312.82 K, 133 kPa, Gas | 0.01159 ± 0.00042
312.93 K, 97 kPa, Gas | 0.01203 ± 0.00043
312.94 K, 162 kPa, Gas | 0.01192 ± 0.00043
312.97 K, 190 kPa, Gas | 0.01196 ± 0.00043
313.06 K, 134 kPa, Gas | 0.01201 ± 0.00043
313.06 K, 195 kPa, Gas | 0.01197 ± 0.00043
313.07 K, 167 kPa, Gas | 0.01173 ± 0.00042
313.11 K, 96 kPa, Gas | 0.0116 ± 0.00041
313.11 K, 130 kPa, Gas | 0.0115 ± 0.00041
313.15 K, 132 kPa, Gas | 0.01155 ± 0.00041
313.31 K, 97 kPa, Gas | 0.01207 ± 0.00043
313.35 K, 195 kPa, Gas | 0.01196 ± 0.00043
313.36 K, 163 kPa, Gas | 0.01197 ± 0.00043
313.42 K, 96 kPa, Gas | 0.01157 ± 0.00041
